Results reported in ChEMBL document CHEMBL5120859, “Optimization of 4-arylthiophene-3-carboxylic acid derivatives as inhibitors of ANO1: Lead optimization studies toward their analgesic efficacy for inflammatory pain” (Eur J Med Chem, 2022).
The source made the active and inactive calls. The calls are words filed in the database; no cut-off is given here.

Tests used:
[1] = Brain concentration in C57BL/6 mouse at 40 mg/kg,IG measured after 0.25 hrs by HPLC analysis; assay type: ADME, organism-based; details: po, read-out: Ct
Mus musculus [2] = assay: Analgesic activity in C57BL/6 mouse model of CFA-induced mechanical hyperalgesia assessed as […] at 40 to 80 mg/kg,po measured after 12 hrs by Von Frey test; assay type: functional, organism-based; details: dose 40-80 mg/kg
[3] = biological target: Transient receptor potential cation channel subfamily V member 1 (Homo sapiens) (UniProt Q8NER1); assay: Inhibition of TRPV1 (unknown origin) at a holding potential +100 mV at 30 uM by whole cell patch clamp electrophysiology relative to control
Transient receptor potential cation channel subfamily V member 1 (Homo sapiens), sequence (Q8NER1 whole entry): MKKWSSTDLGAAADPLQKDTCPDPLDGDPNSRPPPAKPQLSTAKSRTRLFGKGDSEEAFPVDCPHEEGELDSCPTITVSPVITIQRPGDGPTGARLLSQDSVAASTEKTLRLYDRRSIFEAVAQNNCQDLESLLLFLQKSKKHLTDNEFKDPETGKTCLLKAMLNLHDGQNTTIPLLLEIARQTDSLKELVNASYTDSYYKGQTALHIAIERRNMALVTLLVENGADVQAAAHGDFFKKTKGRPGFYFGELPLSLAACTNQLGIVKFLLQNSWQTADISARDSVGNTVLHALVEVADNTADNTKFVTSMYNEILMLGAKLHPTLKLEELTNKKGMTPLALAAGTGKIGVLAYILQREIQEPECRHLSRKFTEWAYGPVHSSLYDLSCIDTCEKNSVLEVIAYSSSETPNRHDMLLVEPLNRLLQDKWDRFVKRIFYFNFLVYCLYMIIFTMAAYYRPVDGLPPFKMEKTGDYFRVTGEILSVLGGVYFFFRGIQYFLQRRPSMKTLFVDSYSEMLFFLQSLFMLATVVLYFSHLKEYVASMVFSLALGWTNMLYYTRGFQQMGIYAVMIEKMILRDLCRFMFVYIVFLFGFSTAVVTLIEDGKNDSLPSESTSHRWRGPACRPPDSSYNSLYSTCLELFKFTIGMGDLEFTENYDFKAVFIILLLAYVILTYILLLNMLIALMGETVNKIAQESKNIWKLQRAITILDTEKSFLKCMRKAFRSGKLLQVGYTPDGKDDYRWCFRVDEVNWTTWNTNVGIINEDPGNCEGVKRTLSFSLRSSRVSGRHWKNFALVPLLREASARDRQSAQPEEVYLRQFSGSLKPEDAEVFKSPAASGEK

Anoctamin-2 = biological target: T1, Anoctamin-2 (Homo sapiens, UniProt Q9NQ90); assay: Inhibition of human ANO2 expressed in HEK293 cells incubated for 5 mins by whole cell patch clamp electrophysiology; assay type: cell-based
T1 sequence (Q9NQ90 whole entry): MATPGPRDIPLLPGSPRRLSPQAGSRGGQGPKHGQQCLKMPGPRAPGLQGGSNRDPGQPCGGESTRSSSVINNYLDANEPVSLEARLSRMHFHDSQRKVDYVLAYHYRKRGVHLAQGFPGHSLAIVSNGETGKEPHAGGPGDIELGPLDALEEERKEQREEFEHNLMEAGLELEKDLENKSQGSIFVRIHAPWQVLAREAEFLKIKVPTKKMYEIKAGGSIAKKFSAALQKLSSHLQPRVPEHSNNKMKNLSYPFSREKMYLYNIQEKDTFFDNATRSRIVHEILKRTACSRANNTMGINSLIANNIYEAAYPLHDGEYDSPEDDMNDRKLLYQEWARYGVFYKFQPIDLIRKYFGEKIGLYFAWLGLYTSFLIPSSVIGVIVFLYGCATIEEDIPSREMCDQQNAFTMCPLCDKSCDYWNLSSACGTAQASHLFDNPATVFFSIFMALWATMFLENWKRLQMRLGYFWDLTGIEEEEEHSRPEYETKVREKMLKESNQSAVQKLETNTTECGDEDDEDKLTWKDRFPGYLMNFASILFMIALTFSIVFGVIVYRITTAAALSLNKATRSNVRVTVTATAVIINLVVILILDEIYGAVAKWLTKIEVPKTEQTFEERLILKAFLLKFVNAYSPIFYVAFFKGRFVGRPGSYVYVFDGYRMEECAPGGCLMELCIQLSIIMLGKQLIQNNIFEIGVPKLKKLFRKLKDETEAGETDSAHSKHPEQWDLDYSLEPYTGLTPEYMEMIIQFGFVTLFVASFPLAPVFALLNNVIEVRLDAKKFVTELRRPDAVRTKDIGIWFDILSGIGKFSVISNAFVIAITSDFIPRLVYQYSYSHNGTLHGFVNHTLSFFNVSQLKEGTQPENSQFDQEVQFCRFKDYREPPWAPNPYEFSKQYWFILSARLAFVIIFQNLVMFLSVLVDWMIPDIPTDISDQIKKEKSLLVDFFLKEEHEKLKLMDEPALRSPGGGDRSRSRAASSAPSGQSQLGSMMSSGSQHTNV

[4] = biological target: Sodium channel protein type 7 subunit alpha (Homo sapiens) (UniProt Q01118); assay: Inhibition of Nav1.7 (unknown origin) in resting condition at 30 uM by whole cell patch clamp electrophysiology relative to control
Sodium channel protein type 7 subunit alpha (Homo sapiens), sequence (Q01118 whole entry): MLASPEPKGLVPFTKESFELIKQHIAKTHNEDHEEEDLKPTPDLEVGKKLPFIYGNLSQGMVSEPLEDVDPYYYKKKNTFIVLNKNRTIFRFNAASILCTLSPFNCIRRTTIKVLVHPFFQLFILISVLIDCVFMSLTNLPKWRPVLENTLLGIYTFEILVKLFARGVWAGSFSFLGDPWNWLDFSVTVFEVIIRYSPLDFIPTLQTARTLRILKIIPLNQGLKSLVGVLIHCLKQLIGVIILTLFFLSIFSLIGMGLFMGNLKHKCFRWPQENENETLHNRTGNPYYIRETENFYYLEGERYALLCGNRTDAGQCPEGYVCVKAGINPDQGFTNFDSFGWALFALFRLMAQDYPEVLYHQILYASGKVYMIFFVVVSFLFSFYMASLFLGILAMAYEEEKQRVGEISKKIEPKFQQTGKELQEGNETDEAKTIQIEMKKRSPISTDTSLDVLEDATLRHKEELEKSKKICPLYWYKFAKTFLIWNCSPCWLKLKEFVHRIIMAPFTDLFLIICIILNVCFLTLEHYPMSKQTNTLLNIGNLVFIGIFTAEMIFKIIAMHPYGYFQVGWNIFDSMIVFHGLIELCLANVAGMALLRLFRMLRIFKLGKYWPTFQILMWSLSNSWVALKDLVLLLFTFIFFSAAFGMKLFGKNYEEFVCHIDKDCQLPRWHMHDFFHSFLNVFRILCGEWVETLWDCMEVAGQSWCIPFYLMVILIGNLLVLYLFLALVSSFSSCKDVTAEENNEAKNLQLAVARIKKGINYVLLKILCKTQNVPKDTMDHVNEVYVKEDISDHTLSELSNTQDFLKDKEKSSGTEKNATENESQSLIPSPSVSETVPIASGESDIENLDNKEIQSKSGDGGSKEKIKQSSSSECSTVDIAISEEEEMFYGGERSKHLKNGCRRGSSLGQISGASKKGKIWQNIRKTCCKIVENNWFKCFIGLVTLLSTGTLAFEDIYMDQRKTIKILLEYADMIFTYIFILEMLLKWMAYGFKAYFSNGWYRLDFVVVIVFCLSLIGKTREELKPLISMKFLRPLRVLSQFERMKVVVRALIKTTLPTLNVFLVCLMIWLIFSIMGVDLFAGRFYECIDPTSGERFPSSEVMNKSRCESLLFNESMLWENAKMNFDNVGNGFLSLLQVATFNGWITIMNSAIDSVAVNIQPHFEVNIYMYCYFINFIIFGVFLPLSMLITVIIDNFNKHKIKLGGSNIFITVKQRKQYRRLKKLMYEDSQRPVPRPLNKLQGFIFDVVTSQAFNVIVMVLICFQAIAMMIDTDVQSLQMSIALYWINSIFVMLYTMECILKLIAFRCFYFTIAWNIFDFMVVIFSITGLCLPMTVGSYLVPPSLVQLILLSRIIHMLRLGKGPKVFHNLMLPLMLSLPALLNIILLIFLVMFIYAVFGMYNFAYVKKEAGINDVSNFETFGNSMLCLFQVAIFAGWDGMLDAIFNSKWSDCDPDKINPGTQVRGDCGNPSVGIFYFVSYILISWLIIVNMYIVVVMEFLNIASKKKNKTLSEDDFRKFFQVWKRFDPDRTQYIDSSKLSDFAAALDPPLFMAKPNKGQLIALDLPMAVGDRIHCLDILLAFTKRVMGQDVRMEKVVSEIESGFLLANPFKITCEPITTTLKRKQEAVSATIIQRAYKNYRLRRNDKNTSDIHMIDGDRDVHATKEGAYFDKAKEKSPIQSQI

[5] = Acute toxicity in C57BL/6 mouse assessed as animal survival at 1000 mg/kg,po measured after 24 hrs; assay type: organism-based; details: in vivo
[6] = Tmax in C57BL/6 mouse at 80 mg/kg,IG measured upto 24 hrs by HPLC-MS/MS analysis; assay type: ADME, organism-based; details: in vivo, po
[7] = Tmax in C57BL/6 mouse at 40 mg/kg,IG measured upto 24 hrs by HPLC-MS/MS analysis; assay type: ADME, organism-based; details: in vivo, po
[8] = biological target: Voltage-dependent N-type calcium channel subunit alpha-1B (Homo sapiens) (UniProt Q00975); assay: Inhibition of Cav2.2 (unknown origin) at a holding potential +10 mV at 30 uM by whole cell patch clamp electrophysiology relative to control
Voltage-dependent N-type calcium channel subunit alpha-1B (Homo sapiens), sequence (Q00975 whole entry, looked up): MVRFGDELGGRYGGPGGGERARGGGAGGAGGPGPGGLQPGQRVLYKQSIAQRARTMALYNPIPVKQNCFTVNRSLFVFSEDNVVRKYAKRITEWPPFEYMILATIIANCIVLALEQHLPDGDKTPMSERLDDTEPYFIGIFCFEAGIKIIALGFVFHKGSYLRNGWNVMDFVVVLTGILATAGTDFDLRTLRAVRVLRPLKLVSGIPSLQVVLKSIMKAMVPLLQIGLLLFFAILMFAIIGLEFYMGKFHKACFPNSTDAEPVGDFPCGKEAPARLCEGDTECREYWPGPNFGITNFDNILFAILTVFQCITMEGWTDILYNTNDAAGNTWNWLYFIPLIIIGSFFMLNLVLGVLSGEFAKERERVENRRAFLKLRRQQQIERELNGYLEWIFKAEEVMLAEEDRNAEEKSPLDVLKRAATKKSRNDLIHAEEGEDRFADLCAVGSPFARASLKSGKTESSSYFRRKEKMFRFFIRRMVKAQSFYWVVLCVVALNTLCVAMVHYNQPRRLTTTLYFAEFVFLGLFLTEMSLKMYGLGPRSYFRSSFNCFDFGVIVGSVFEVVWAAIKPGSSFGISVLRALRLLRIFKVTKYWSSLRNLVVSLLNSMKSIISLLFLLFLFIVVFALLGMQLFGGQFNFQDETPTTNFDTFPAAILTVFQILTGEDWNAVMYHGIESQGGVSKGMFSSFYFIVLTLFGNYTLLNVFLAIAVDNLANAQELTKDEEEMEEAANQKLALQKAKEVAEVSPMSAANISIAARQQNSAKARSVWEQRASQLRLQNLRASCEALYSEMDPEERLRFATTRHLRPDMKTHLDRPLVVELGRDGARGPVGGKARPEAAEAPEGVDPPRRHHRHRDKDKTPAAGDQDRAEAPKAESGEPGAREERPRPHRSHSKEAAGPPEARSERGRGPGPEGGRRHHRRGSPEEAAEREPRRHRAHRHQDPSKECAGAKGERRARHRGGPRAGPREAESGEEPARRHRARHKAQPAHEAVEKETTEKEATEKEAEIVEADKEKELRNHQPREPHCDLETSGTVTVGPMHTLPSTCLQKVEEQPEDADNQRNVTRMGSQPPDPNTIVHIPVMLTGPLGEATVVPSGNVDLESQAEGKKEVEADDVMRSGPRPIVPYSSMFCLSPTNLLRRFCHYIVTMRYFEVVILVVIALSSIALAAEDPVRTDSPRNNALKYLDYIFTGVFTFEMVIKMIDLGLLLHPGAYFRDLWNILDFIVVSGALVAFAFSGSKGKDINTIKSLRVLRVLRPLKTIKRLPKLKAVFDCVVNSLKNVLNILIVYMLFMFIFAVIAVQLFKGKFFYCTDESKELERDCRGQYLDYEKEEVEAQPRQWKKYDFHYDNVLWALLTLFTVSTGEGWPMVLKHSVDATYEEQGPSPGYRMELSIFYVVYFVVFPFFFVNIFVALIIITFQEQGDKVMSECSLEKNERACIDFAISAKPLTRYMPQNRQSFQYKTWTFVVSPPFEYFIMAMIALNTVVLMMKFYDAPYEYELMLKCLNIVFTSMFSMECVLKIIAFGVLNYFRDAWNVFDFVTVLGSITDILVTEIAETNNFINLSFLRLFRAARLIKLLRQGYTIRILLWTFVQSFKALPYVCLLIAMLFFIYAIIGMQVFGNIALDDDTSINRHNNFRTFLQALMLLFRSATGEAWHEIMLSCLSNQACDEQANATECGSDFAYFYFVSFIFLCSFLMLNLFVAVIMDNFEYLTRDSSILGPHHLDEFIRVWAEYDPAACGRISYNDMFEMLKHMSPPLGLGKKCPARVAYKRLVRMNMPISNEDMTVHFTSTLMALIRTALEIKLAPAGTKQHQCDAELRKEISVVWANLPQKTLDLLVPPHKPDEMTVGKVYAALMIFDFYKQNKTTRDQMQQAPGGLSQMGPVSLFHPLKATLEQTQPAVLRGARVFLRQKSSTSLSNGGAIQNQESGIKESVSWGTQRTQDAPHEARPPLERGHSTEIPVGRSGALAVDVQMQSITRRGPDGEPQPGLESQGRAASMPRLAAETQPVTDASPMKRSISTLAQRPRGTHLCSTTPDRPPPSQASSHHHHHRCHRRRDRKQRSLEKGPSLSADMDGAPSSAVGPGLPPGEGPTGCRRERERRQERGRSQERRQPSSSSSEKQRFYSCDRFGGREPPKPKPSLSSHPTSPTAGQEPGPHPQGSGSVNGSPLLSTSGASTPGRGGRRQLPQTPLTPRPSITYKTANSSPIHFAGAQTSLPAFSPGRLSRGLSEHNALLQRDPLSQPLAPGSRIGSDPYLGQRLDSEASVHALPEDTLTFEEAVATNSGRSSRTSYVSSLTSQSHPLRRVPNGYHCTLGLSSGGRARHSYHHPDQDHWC

[9] = MRT (0 to t) in C57BL/6 mouse at 40 mg/kg,IG measured upto 24 hrs by HPLC-MS/MS analysis; assay type: ADME, organism-based; details: in vivo, po
[10] = Cmax in C57BL/6 mouse at 80 mg/kg,IG measured upto 24 hrs by HPLC-MS/MS analysis; assay type: ADME, organism-based; design: dose 80 mg/kg, time < 24 hrs, route ig; details: in vivo, po
[11] = Acute toxicity in C57BL/6 mouse assessed as toxic symptoms at 1000 mg/kg,po measured after 24 hrs; assay type: organism-based; details: in vivo
[12] = Ratio of drug concentration in brain to plasma in C57BL/6 mouse at 40 mg/kg,IG measured after 0.25 hrs by HPLC analysis; assay type: ADME, organism-based; details: po
Anoctamin-1 = biological target: T2, Anoctamin-1 (Homo sapiens, UniProt Q5XXA6); assay: Inhibition of YFP tagged ANO1 (unknown origin) expressed in FRT cells incubated for 24 hrs by fluorescence plate reader assay; assay type: cell-based
T2 sequence (Q5XXA6 whole entry): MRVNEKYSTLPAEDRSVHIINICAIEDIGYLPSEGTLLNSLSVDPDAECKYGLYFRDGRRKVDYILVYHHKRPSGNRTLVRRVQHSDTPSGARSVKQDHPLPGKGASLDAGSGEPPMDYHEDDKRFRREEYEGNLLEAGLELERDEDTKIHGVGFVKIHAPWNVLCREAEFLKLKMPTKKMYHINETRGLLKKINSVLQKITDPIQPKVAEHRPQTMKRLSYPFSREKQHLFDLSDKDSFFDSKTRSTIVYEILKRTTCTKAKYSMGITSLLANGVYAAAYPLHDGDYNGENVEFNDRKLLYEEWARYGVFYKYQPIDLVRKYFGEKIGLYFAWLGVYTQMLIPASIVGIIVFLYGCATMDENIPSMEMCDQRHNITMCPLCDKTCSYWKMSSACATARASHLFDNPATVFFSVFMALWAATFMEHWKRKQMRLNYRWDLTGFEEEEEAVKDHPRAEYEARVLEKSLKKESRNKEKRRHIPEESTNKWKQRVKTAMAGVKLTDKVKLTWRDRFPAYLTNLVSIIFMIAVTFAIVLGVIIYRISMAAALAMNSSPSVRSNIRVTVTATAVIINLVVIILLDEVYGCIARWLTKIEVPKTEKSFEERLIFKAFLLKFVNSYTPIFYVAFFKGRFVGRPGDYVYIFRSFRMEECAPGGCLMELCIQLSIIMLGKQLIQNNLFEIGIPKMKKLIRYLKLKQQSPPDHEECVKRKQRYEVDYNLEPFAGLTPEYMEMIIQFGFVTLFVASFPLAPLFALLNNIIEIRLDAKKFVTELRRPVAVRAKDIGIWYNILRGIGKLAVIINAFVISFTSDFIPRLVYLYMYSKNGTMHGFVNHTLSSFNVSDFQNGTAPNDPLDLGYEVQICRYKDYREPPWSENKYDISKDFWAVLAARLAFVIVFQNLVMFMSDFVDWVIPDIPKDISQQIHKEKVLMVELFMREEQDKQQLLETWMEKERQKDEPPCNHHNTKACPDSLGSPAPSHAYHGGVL

Mus musculus [13] = assay: Analgesic activity in C57BL/6 mouse model of formalin-induced allodynia assessed as reduction on foot licking pain response at 40 to 80 mg/kg,po measured after 10 mins; assay type: functional, organism-based; details: dose 40-80 mg/kg

With O=C(Nc1scc(-c2ccc(Cl)cc2)c1C(=O)O)c1cc(F)ccc1F the concentration at 0.25 h [1] was 1440 ng/g, the Activity (Mus musculus [2]) was “Active” and the inhibition [3] was 17%. The IC50 (Anoctamin-2) was 8.7 µM, the inhibition [4] was 4.4% and the Activity [5] was “Non-Toxic”. The Tmax [6] was 10.2 min, the Tmax [7] was 15 min and the inhibition [8] was 32%. For the same molecule, the MRT last at 24 h [9] was 324 min, the Cmax [10] was 130 µg/mL and the Activity [11] was “Non-Toxic”. The Ratio [12] was 1.5%, the IC50 (Anoctamin-1) was 0.024 µM and the Activity (Mus musculus [13]) was “Active”.
